Measured values from patent US20260207623A1, “USE OF ESTETROL IN HEPATICALLY IMPAIRED PATIENTS” (ESTETRA SRL, priority 2022, published 2026).

Columns and labels:
[1] = test system: female subjects with normal hepatic function, mild, moderate or severe hepatic impairment; assay: Safety and tolerability (TEAEs, clinical laboratory, vital signs, physical examination) after a single oral dose of 20 mg E4 monohydrate in the hepatic impairment study; format: in vivo, human; conditions: for TEAE: Back pain / TEAE: Diarrhea / TEAE: Gastrointestinal disorders / TEAE: General disorders and administration site conditions / TEAE: Haemarthrosis / TEAE: Headache / TEAE: Hypertension / TEAE: Musculoskeletal and connective tissue disorders / TEAE: Nervous system disorders / TEAE: Pain in extremity / TEAE: Pancreatitis / TEAE: Pyrexia / TEAE: Renal and urinary disorders / TEAE: Renal impairment / TEAE: Total Subjects with at Least One TEAE / TEAE: Vascular disorders / TEAE by severity: Back pain, severity Mild / TEAE by severity: Back pain, severity Moderate / TEAE by severity: Diarrhea, severity Mild / TEAE by severity: Diarrhea, severity Moderate / TEAE by severity: Gastrointestinal disorders, severity Mild / TEAE by severity: Gastrointestinal disorders, severity Moderate / TEAE by severity: General disorders and administration site conditions, severity Mild / TEAE by severity: Haemarthrosis, severity Mild / TEAE by severity: Headache, severity Mild / TEAE by severity: Headache, severity Moderate / TEAE by severity: Hypertension, severity Mild / TEAE by severity: Musculoskeletal and connective tissue disorders, severity Mild / TEAE by severity: Musculoskeletal and connective tissue disorders, severity Moderate / TEAE by severity: Nervous system disorders, severity Mild / TEAE by severity: Nervous system disorders, severity Moderate / TEAE by severity: Pain in extremity, severity Mild / TEAE by severity: Pancreatitis, severity Moderate / TEAE by severity: Pyrexia, severity Mild / TEAE by severity: Renal and urinary disorders, severity Mild / TEAE by severity: Renal impairment, severity Mild / TEAE by severity: Vascular disorders, severity Mild: single oral 20 mg
Protocol: This was a Phase 1, multi-centre, open-label, PK, and safety study of a single oral dose of 20 mg E4 monohydrate in female subjects with normal hepatic function (Group 1), mild hepatic impairment (Group 2), moderate hepatic impairment (Group 3), and severe hepatic impairment (Group 4), as defined using the Child-Pugh classification at Screening.
Safety and tolerability assessments consisted of treatment-emergent AEs (TEAEs), clinical laboratory, vital signs, physical examination, and gynecological examination. Assessments were performed in accordance with Table 2 and Table 3 in Section 2.5.1.
AEs/TEAEs were recorded after signing of the ICF until completion of the follow up visit. Any clinically significant observations in results of clinical laboratory, vital signs, or physical examinations were recorded as AEs.
A TEAE is defined as any event not present prior to administration of the study drug or any event already present that worsens in either severity or frequency following exposure to the study drug.
The below listed tests were to be performed by the local laboratories at time points indicated in the Schedule of Assessments (Table 2).
Systolic and diastolic blood pressure and pulse were recorded after the subject had been resting for at least 5 minutes in the supine position at time points indicated in the Schedule of Assessments (Table 2). These assessments were made using an automated device. Body temperature and respiratory rate were measured subsequently.
A complete physical examination consisting of a review of all body systems was performed at time points indicated in the Schedule of Assessments (Table 2). A symptom-directed physical examination could be conducted at any time per Investigator's discretion.
2.6.2.2 Evaluation of Safety and Tolerability Safety and tolerability were assessed through TEAEs, clinical laboratory, vital signs, and physical examination findings, and any other parameter that was relevant for safety assessment.
A listing of all individual AEs is provided. Summary tables of TEAEs are presented by system organ class (SOC) based on the MedDRA terminology list (preferred terms): a table containing the number of subjects experiencing AEs by hepatic function, a table containing the number of subjects experiencing SAEs by hepatic function (if applicable), a table by hepatic function and relationship, and a table by hepatic function and severity.

[2] = test system: C-Terminal Telopeptide (CTX-1); assay: Example 2 section F: C-terminal telopeptide (CTX-1), marker of bone resorption, at 15 mg and 20 mg daily doses; format: in vivo, human
Protocol: In order to better assess the potential for increasing the daily dose beyond the minimum effective dose of 15 mg estetrol monohydrate daily, a number of parameters were followed in a study where estetrol monohydrate was administered at the increased dose of 20 mg per day.
6. C-Terminal Telopeptide (CTX-1) (Ng/L)
CTX-1 is a specific marker of bone resorption.

[3] = Normal hepatic function (N = 8)
[4] = Severe hepatic impairment (N = 8)

## C[C@]12CC[C@@H]3c4ccc(O)cc4CC[C@H]3[C@@H]1[C@@H](O)[C@@H](O)[C@@H]2O [E4 monohydrate, estetrol monohydrate]
[1]; [3]
  TEAE: Back pain: 1 (12.5) n (%)
  TEAE: Diarrhea: 1 (12.5) n (%)
  TEAE: Gastrointestinal disorders: 2 (25.0) n (%)
  TEAE: General disorders and administration site conditions: 0 (0.0) n (%)
  TEAE: Haemarthrosis: 0 (0.0) n (%)
  TEAE: Headache: 0 (0.0) n (%)
  TEAE: Hypertension: 0 (0.0) n (%)
  TEAE: Musculoskeletal and connective tissue disorders: 1 (12.5) n (%)
  TEAE: Nervous system disorders: 0 (0.0) n (%)
  TEAE: Pain in extremity: 0 (0.0) n (%)
  TEAE: Pancreatitis: 1 (12.5) n (%)
  TEAE: Pyrexia: 0 (0.0) n (%)
  TEAE: Renal and urinary disorders: 0 (0.0) n (%)
  TEAE: Renal impairment: 0 (0.0) n (%)
  TEAE: Total Subjects with at Least One TEAE: 2 (25.0) n (%)
  TEAE: Vascular disorders: 0 (0.0) n (%)
[1]; [4]
  TEAE by severity: Back pain, severity Mild: 1 (12.5) n (%)
  TEAE by severity: Back pain, severity Moderate: 0 (0.0) n (%)
  TEAE by severity: Diarrhea, severity Mild: 0 (0.0) n (%)
  TEAE by severity: Diarrhea, severity Moderate: 0 (0.0) n (%)
  TEAE by severity: Gastrointestinal disorders, severity Mild: 0 (0.0) n (%)
  TEAE by severity: Gastrointestinal disorders, severity Moderate: 0 (0.0) n (%)
  TEAE by severity: General disorders and administration site conditions, severity Mild: 0 (0.0) n (%)
  TEAE by severity: Haemarthrosis, severity Mild: 0 (0.0) n (%)
  TEAE by severity: Headache, severity Mild: 0 (0.0) n (%)
  TEAE by severity: Headache, severity Moderate: 0 (0.0) n (%)
  TEAE by severity: Hypertension, severity Mild: 0 (0.0) n (%)
  TEAE by severity: Musculoskeletal and connective tissue disorders, severity Mild: 1 (12.5) n (%)
  TEAE by severity: Musculoskeletal and connective tissue disorders, severity Moderate: 0 (0.0) n (%)
  TEAE by severity: Nervous system disorders, severity Mild: 0 (0.0) n (%)
  TEAE by severity: Nervous system disorders, severity Moderate: 0 (0.0) n (%)
  TEAE by severity: Pain in extremity, severity Mild: 0 (0.0) n (%)
  TEAE by severity: Pancreatitis, severity Moderate: 0 (0.0) n (%)
  TEAE by severity: Pyrexia, severity Mild: 0 (0.0) n (%)
  TEAE by severity: Renal and urinary disorders, severity Mild: 1 (12.5) n (%)
  TEAE by severity: Renal impairment, severity Mild: 1 (12.5) n (%)
  TEAE by severity: Vascular disorders, severity Mild: 0 (0.0) n (%)
  TEAE: Back pain: 1 (12.5) n (%)
  TEAE: Diarrhea: 0 (0.0) n (%)
  TEAE: Gastrointestinal disorders: 0 (0.0) n (%)
  TEAE: General disorders and administration site conditions: 0 (0.0) n (%)
  TEAE: Haemarthrosis: 0 (0.0) n (%)
  TEAE: Headache: 0 (0.0) n (%)
  TEAE: Hypertension: 0 (0.0) n (%)
  TEAE: Musculoskeletal and connective tissue disorders: 1 (12.5) n (%)
  TEAE: Nervous system disorders: 0 (0.0) n (%)
  TEAE: Pain in extremity: 0 (0.0) n (%)
  TEAE: Pancreatitis: 0 (0.0) n (%)
  TEAE: Pyrexia: 0 (0.0) n (%)
  TEAE: Renal and urinary disorders: 1 (12.5) n (%)
  TEAE: Renal impairment: 1 (12.5) n (%)
  TEAE: Total Subjects with at Least One TEAE: 1 (12.5) n (%)
  TEAE: Vascular disorders: 0 (0.0) n (%)
[1]; Total (N = 32)
  TEAE by severity: Back pain, severity Mild: 1 (3.1) n (%)
  TEAE by severity: Back pain, severity Moderate: 1 (3.1) n (%)
  TEAE by severity: Diarrhea, severity Mild: 2 (6.3) n (%)
  TEAE by severity: Diarrhea, severity Moderate: 1 (3.1) n (%)
  TEAE by severity: Gastrointestinal disorders, severity Mild: 2 (6.3) n (%)
  TEAE by severity: Gastrointestinal disorders, severity Moderate: 2 (6.3) n (%)
  TEAE by severity: General disorders and administration site conditions, severity Mild: 1 (3.1) n (%)
  TEAE by severity: Haemarthrosis, severity Mild: 1 (3.1) n (%)
  TEAE by severity: Headache, severity Mild: 1 (3.1) n (%)
  TEAE by severity: Headache, severity Moderate: 1 (3.1) n (%)
  TEAE by severity: Hypertension, severity Mild: 2 (6.3) n (%)
  TEAE by severity: Musculoskeletal and connective tissue disorders, severity Mild: 3 (9.4) n (%)
  TEAE by severity: Musculoskeletal and connective tissue disorders, severity Moderate: 1 (3.1) n (%)
  TEAE by severity: Nervous system disorders, severity Mild: 1 (3.1) n (%)
  TEAE by severity: Nervous system disorders, severity Moderate: 1 (3.1) n (%)
  TEAE by severity: Pain in extremity, severity Mild: 1 (3.1) n (%)
  TEAE by severity: Pancreatitis, severity Moderate: 1 (3.1) n (%)
  TEAE by severity: Pyrexia, severity Mild: 1 (3.1) n (%)
  TEAE by severity: Renal and urinary disorders, severity Mild: 1 (3.1) n (%)
  TEAE by severity: Renal impairment, severity Mild: 1 (3.1) n (%)
  TEAE by severity: Vascular disorders, severity Mild: 2 (6.3) n (%)
  TEAE: Back pain: 2 (6.3) n (%)
  TEAE: Diarrhea: 3 (9.4) n (%)
  TEAE: Gastrointestinal disorders: 4 (12.5) n (%)
  TEAE: General disorders and administration site conditions: 1 (3.1) n (%)
  TEAE: Haemarthrosis: 1 (3.1) n (%)
  TEAE: Headache: 2 (6.3) n (%)
  TEAE: Hypertension: 2 (6.3) n (%)
  TEAE: Musculoskeletal and connective tissue disorders: 4 (12.5) n (%)
  TEAE: Nervous system disorders: 2 (6.3) n (%)
  TEAE: Pain in extremity: 1 (3.1) n (%)
  TEAE: Pancreatitis: 1 (3.1) n (%)
  TEAE: Pyrexia: 1 (3.1) n (%)
  TEAE: Renal and urinary disorders: 1 (3.1) n (%)
  TEAE: Renal impairment: 1 (3.1) n (%)
  TEAE: Total Subjects with at Least One TEAE: 9 (28.1) n (%)
  TEAE: Vascular disorders: 2 (6.3) n (%)
[1]; diarrhea, mild intensity, 1 subject in the moderate group
  number of TEAEs considered related to the study drug: 1 TEAE
[1]; normal hepatic function group
  subjects reporting TEAE diarrhea: 1 subjects
[1]; single oral dose of 20 mg, normal hepatic function, mild, moderate or severe hepatic impairment
  overall safety and tolerability: safe and well tolerated
[1]; whole study, monohydrate
  deaths, SAEs, other significant AEs: No deaths, SAEs, or other significant AEs occurred
[2]; 15 mg daily dose
  bone resorption (CTX-1): small decrease of bone resorption
[2]; 20 mg daily dose, after 28 days of treatment, compared with 15 mg
  bone resorption (CTX-1): more pronounced
